Laboratory results taken from publication PMC10872270 (Cell reports, 2023).

Tests used:
[1] = system: MDA-MB-453 xenograft; conditions: female mice supplemented with DHT; cited from earlier work
[2] = system: patients expressing AR-V7; conditions: clinical trial; alone or in combination with PI3K inhibitor taselisib; cited from earlier work
[3] = system: UT-1355 PDX; experiment: UT-1355 TNBC PDX orthotopic xenograft; assay type: in vivo; conditions: female NSG mice; expresses AR-FL and AR-V7
[4] = system: MDA-MB-453 tumors; experiment: RNA-seq of MDA-MB-453 xenograft tumors; assay type: in vivo, mice; conditions: MDA-MB-453 xenograft tumors vs vehicle
[5] = system: AR-target genes FKBP5, STEAP4, and TMPRSS2; experiment: AR-target gene expression by real-time PCR in MDA-MB-453 cells; assay type: cell-based; conditions: 16–20 hours
[6] = system: FKBP5; experiment: R1881-induced FKBP5 expression in MDA-MB-453 cells; conditions: 0.1 nM R1881, 3 μM, 24 hours
[7] = system: STAT1 phosphorylation; experiment: Interferon α-induced STAT1 phosphorylation in MDA-MB-453 cells; assay type: cell-based; conditions: 3 μM pretreated for 24 hours, interferon α 30 minutes
[8] = system: MDA-MB-453 cells; experiment: SRB proliferation assay in growth medium; assay type: cell-based; conditions: parental MDA-MB-453 cells, seven days
[9] = biological target: T1, AR (Homo sapiens, UniProt P10275); conditions: HEK-293 cells
T1 sequence (P10275 1-920): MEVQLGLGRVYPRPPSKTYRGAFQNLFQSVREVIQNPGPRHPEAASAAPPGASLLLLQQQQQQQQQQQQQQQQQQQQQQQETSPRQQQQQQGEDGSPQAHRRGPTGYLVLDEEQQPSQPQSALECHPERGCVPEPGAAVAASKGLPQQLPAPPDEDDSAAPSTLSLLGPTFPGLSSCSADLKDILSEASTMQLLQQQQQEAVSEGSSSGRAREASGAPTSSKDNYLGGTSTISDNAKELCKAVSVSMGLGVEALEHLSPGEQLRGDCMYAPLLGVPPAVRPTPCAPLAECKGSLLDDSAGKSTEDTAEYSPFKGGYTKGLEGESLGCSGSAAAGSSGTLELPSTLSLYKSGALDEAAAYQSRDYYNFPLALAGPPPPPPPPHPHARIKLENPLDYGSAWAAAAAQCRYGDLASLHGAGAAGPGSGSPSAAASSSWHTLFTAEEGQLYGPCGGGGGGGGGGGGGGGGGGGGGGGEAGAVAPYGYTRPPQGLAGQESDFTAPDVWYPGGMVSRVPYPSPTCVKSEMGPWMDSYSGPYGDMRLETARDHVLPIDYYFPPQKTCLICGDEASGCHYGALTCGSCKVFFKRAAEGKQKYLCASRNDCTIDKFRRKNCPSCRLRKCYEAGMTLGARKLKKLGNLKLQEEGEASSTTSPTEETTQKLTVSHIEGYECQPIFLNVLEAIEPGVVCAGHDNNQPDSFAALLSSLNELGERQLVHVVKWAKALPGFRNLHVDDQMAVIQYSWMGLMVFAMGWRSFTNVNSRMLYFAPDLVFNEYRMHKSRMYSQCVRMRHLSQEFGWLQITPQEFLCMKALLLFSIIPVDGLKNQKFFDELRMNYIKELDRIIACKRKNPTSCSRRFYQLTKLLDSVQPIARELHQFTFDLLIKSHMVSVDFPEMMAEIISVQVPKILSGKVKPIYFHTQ

[10] = system: MDA-MB-453-AR-V7 cells; experiment: SRB proliferation assay in growth medium; assay type: cell-based; conditions: seven days

SMILES | MDA-MB-453 xenograft growth [1] | effect in patients expressing AR-V7 [2] | growth of UT-1355 PDX [3] | differentially expressed genes in treated tumors [4] | R1881-stimulated expression of FKBP5 [5] | R1881-stimulated expression of STEAP4 [5] | R1881-stimulated expression of TMPRSS2 [5] | R1881-induced expression of FKBP5 [6] | interferon-α-induced phosphorylation of STAT1 [7] | cell proliferation [8] | R1881-dependent AR transactivation in the absence of STAT1 [9] | STAT1-dependent increase in AR transactivation ([9]; 0.1 μg STAT1) | cell proliferation [10]
CNC(=O)c1ccc(N2C(=S)N(c3ccc(C#N)c(C(F)(F)F)c3)C(=O)C2(C)C)cc1F [enzalutamide] | inhibits | failed to have an effect | modestly effective | eight | inhibited | inhibited | inhibited | – | – | – | – | – | –
N#CC[C@H](C1CCCC1)n1cc(-c2ncnc3[nH]ccc23)cn1 [ruxolitinib] | – | – | – | – | – | – | – | completely inhibited | completely inhibited | comparable inhibition | no effect | inhibited | comparable inhibition
